Measurements reported in ChEMBL document CHEMBL1201862, “PubChem BioAssay data set” (2004).
Active and inactive are the calls of the source.

Columns and labels:
[1] = viability of uninfected HEp-2 cells – cell-based, HTS, cytotoxicity control for RSV inhibitor project, dose response (AID 2410); format: functional; conditions: human respiratory syncytial virus
[2] = Luminescence Cell-Based Dose Confirmation HTS to Identify Activators of 5'UTR Stem-Loop Driven Alpha-Synuclein mRNA Translation in H4 Neuroglioblastoma Cells. [Related pubchem assays: 1829 (Project Summary), 1814 (Primary HTS)]; format: functional
[3] = Luminescence Cell-Based Dose Response HTS to Identify Activators of Luciferase Translation or Activity in H4 […] Cells. [Related pubchem assays: 1829 (Project Summary), 1814 (Primary HTS)]; format: functional
H4 = assay: Luminescence Cell-Based Dose Response HTS to Identify Activators of 5'UTR Stem-Loop Driven Prion Protein mRNA Translation in H4 Neuroglioblastoma Cells. [Related pubchem assays: 1829 (Project Summary), 1814 (Primary HTS)]; format: functional; conditions: Homo sapiens
Cytochrome P450 2D6 = Cytochrome P450 2D6 (Homo sapiens, UniProt P10635);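 also: CYP2D6 member of a cytochrome P450 panel assay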
Sequence of Cytochrome P450 2D6 (P10635 whole entry): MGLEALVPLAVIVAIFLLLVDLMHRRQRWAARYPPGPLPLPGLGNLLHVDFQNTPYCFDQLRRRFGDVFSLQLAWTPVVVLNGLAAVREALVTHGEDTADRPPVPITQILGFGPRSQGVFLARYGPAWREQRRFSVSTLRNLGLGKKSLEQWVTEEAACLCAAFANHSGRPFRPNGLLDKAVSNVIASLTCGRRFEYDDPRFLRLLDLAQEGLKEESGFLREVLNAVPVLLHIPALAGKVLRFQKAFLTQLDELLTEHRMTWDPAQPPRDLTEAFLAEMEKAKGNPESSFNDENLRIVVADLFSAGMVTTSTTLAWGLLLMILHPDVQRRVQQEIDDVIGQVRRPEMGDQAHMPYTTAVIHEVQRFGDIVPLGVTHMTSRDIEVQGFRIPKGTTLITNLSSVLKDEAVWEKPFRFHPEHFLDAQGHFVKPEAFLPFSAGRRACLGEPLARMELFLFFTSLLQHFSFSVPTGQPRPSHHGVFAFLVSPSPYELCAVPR

Cytochrome P450 2C19 = Cytochrome P450 2C19 (Homo sapiens, UniProt P33261); assay: Cytochrome panel assay with activity outcomes. Panel member name: p450-cyp2c19 Compounds with AC50 equal or less than 10 uM are considered active; format: functional; conditions: read-out: AC50
Sequence of Cytochrome P450 2C19 (P33261 whole entry): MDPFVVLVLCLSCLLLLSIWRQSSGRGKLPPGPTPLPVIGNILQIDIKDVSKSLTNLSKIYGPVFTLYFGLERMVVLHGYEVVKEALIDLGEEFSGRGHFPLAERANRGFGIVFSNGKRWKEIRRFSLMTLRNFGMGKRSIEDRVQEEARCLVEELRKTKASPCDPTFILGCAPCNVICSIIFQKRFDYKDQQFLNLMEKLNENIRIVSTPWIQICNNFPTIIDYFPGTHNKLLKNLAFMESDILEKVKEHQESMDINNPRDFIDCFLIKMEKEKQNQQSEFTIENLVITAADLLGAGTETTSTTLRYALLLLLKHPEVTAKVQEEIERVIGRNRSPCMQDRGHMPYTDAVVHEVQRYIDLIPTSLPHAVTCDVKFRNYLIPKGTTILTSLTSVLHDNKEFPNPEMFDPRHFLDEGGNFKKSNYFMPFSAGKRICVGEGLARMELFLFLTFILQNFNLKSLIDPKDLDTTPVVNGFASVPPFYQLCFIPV

Cytochrome P450 1A2 = target: T1, Cytochrome P450 1A2 (Homo sapiens, UniProt P05177);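 also: PubChem cytochrome P450 panel assay, CYP1A2 panel member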
T1 sequence (P05177 whole entry): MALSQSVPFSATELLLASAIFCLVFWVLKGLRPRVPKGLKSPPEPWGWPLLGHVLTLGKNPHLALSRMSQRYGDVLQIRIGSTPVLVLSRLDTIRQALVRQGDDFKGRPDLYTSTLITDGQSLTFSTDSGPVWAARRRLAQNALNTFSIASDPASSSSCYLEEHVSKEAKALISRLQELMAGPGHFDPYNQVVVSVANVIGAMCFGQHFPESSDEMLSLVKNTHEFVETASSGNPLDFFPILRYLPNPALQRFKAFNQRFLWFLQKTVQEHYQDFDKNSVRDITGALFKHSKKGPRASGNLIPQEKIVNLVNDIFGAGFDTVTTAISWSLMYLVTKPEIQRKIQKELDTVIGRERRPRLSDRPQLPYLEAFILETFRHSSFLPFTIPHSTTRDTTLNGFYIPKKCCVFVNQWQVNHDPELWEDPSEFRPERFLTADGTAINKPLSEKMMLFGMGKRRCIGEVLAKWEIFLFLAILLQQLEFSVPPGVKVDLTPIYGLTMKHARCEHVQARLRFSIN

[4] = target: T2, RNA-binding protein pos-1 (Caenorhabditis elegans, UniProt G5EF15); assay: disruptors of C. elegans POS-1 RNA interaction – biochemical, fluorescence polarization, dose response (AID 1964);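 also: purified POS-1 fused to maltose binding protein made in E. coli; potency of compounds blocking POS-1 binding to fluorescent RNA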
T2 sequence (G5EF15 whole entry): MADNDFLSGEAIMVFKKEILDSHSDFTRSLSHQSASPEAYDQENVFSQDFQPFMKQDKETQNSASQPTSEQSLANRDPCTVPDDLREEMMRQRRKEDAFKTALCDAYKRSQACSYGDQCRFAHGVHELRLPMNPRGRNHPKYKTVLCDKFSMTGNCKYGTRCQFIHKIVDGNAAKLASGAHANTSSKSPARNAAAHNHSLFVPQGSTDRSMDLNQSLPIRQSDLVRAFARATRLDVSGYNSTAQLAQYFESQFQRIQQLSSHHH

[5] = target: T3, Zinc finger protein mex-5 (Caenorhabditis elegans, UniProt Q9XUB2); assay: potency of MEX-5 RNA-binding blockers – biochemical, C. elegans, fluorescence polarization, dose response (AID 1960)
T3 sequence (Q9XUB2 whole entry): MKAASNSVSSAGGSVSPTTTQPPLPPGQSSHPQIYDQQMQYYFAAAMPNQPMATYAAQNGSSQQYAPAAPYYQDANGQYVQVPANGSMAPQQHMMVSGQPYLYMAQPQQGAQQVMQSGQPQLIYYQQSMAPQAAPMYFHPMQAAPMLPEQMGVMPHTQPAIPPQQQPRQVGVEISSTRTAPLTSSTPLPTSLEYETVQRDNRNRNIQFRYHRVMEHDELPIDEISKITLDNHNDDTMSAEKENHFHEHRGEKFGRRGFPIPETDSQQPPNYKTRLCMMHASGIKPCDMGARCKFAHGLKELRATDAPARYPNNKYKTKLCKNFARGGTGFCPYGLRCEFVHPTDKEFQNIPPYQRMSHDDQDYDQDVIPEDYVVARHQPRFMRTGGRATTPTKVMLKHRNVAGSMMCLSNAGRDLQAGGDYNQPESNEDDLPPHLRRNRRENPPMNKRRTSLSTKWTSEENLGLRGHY

Cytochrome P450 3A4 = Cytochrome P450 3A4 (Homo sapiens, UniProt P08684);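 also: CYP3A4 tested as one member of a cytochrome P450 panel screen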
Sequence of Cytochrome P450 3A4 (P08684 whole entry): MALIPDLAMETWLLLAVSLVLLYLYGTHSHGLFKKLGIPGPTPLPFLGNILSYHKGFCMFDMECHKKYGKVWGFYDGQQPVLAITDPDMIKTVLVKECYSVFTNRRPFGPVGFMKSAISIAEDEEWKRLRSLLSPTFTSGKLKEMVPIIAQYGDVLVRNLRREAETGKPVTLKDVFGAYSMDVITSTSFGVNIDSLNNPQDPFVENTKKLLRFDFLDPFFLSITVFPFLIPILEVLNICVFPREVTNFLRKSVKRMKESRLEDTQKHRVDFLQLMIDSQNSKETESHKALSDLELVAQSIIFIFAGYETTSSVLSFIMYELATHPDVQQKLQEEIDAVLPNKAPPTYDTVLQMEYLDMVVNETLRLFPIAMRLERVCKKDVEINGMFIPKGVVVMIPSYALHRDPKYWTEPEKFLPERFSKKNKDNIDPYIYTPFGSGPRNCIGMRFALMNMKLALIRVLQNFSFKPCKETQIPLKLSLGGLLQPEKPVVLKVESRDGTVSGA

Cytochrome P450 2C9 = Cytochrome P450 2C9 (Homo sapiens, UniProt P11712)
Sequence of Cytochrome P450 2C9 (P11712 whole entry): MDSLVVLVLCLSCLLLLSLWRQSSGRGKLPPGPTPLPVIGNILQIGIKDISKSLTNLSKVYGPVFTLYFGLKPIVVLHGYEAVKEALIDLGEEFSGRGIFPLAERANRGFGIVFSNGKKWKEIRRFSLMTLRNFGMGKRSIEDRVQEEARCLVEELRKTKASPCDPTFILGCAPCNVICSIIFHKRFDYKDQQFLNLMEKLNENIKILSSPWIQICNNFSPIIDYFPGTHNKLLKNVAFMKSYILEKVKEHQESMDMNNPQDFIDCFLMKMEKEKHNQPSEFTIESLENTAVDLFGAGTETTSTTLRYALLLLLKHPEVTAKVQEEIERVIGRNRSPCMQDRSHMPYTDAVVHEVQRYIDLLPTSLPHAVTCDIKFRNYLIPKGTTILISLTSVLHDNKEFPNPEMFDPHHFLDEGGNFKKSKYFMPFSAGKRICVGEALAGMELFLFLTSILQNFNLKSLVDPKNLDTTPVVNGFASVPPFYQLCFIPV

[6] = target: T4, Heat shock factor protein 1 (Mus musculus, UniProt P38532); assay: enhancement of HSF1-driven luciferase signal – cell-based, NIH3T3, luminescence, dose retest, confirmation (AID 435004); format: functional;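 also: stress induced by proteasome inhibitor MG132 added 30 min after compound; luciferase reporter driven by HSF1 response element in NIH3T3 cells; actives raise luminescence as potentiators of the MG132 stress response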
T4 sequence (P38532 whole entry): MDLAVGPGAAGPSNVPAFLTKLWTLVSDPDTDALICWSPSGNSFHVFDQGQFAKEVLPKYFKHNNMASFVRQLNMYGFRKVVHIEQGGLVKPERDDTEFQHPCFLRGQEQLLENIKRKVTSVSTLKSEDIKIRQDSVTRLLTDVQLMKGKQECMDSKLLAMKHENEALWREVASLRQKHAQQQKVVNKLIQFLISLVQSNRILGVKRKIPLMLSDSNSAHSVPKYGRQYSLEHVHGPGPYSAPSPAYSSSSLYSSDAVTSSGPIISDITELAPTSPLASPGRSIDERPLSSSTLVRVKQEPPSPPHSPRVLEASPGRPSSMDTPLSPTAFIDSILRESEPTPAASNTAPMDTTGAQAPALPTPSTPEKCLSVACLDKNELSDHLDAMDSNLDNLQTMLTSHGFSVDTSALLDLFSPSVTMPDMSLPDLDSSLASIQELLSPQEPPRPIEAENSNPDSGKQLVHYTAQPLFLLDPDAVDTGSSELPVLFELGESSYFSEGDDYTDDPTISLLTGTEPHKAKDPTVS

[7] = target: T4, Heat shock factor protein 1; assay: decrease of HSF1-responsive luciferase luminescence – cell-based, NIH3T3, dose retest, confirmation (AID 2382); format: functional;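 also: NIH3T3 fibroblasts with HSF1-driven luciferase reporter stressed by proteasome inhibitor MG132; luminescence from HSF1-driven luciferase expression after 8 hours of MG132 stress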
[8] = Trypanosoma cruzi growth suppression in host cells – NIH3T3 host cells, beta-gal luminescence, confirmation (AID 2044); format: functional, cell-based;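 also: intracellular parasites grown in NIH/3T3 mouse fibroblasts as host cells; luminescent beta-galactosidase reporter signal from transgenic T. cruzi replicating inside host cells; inhibitors lower the luminescence signal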
[9] = NIH3T3 cell viability loss – ATP luminescence, mouse fibroblasts, counter-screen, dose response (AID 2010); format: functional, cell-based;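 also: cells exposed to compound for about 90 hours before reading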

N#Cc1nc(Cc2ccccc2)oc1NCCc1ccccc1
CC50 [1]: 28.9 µM (active) | EC50 [2]: 4.71 µM (active) | EC50 [3]: 56.9 µM (active) | EC50 (H4): 14.5 µM (active)

O=C(c1cccc(F)c1)N1CCC[C@@]2(CCN(C(c3ccccc3)c3ccccc3)C2)C1
AC50 (Cytochrome P450 2D6): 12.6 µM (inconclusive)

CCN(CCCl)Cc1ccccc1Br
AC50 (Cytochrome P450 2C19): 39.8 µM (inconclusive) | AC50 (Cytochrome P450 2D6): 12.6 µM (inconclusive) | AC50 (Cytochrome P450 1A2): 15.8 µM (inconclusive)

CCCCC1=CC2=C(c3ccco3)C(=O)C(C)(OC(=O)c3ccc(OC)cc3)C(=O)C2=CN1CCN1CCOCC1 (stereo unspecified)
EC50 [4]: 95.7 µM (active) | EC50 [5]: 42.2 µM (active)

O=c1cnc2cnc(N3CCOCC3)nc2n1Cc1cccs1
AC50 (Cytochrome P450 2C19): 31.6 µM (inconclusive) | AC50 (Cytochrome P450 2D6): 25.1 µM (inconclusive) | AC50 (Cytochrome P450 3A4): 15.8 µM (inconclusive) | AC50 (Cytochrome P450 2C9): 31.6 µM (inconclusive)

CCn1c(SCc2cccc(C)c2)nnc1-c1ccccc1
AC50 (Cytochrome P450 2D6): 15.8 µM (inconclusive) | AC50 (Cytochrome P450 3A4): 3.16 µM (inconclusive) | AC50 (Cytochrome P450 2C9): 35.5 µM (inconclusive)

COc1cc(OC)cc(C(=O)NC(=S)NCCc2ccccc2)c1
AC50 (Cytochrome P450 2D6): 10 µM (inconclusive)

O=C1NCC2=C1C(c1ccc(Br)cc1)Nc1ccccc1N2 (stereo unspecified)
EC50 [6]: > 260 µM (inactive) | AC50 (Cytochrome P450 2D6): 2.24 µM (inconclusive) | AC50 (Cytochrome P450 3A4): 25.1 µM (inconclusive)

CN/C(=N/C#N)NCCSC[C@H]1N=CN=C1C
AC50 (Cytochrome P450 2D6): 10 µM (inconclusive)

CSC(=Nc1cccc(Cl)c1C)NS(=O)(=O)c1cccs1
EC50 [4]: > 300 µM (not active) | EC50 [5]: > 300 µM (not active)

CC(=O)/N=c1\c(C#N)cc2c(=O)n3cccc(C)c3nc2n1CCCOC(C)C
EC50 [4]: > 300 µM (not active)

CC(C)(C)c1ccc(OCc2ccc(C(=O)Nc3cccnc3)o2)cc1
EC50 [4]: > 300 µM (not active) | EC50 [5]: > 300 µM (not active)

CC(=O)Nc1c(S(=O)(=O)c2ccccc2)c2nc3ccccc3nc2n1Cc1ccccc1
AC50 (Cytochrome P450 2D6): 25.1 µM (inconclusive)

COc1ccc(OC)c(S(=O)(=O)NC2CCN(Cc3ccccc3)CC2)c1
EC50 [4]: > 300 µM (not active) | EC50 [5]: > 300 µM (not active)

C[N+]1(C)CCc2cc3c(cc2[C@@H]1[C@@H]1OC(=O)c2c1ccc1c2OCO1)OCO3
AC50 (Cytochrome P450 2D6): 31.6 µM (inconclusive)

CC(C)c1nc(SCc2c(F)cccc2Cl)c2c(=O)n(C)c(=O)n(C)c2n1
CC50 [1]: 7.44 µM (active) | EC50 [7]: > 195 µM (not active)

C=CCNC(=O)/C(=C\C=C\c1ccccc1)NC(=O)c1ccc(OCCCC)cc1
AC50 (Cytochrome P450 2D6): 4.47 µM (inconclusive)

COc1c(C)cc(Br)cc1C(=O)Nc1ccccc1N1CCN(C(=O)c2ccccc2)CC1
CC50 [1]: 31.5 µM (active) | EC50 [8]: 2.52 µM (active) | EC50 [9]: > 60 µM (not active)

CN(Cc1ccco1)c1ncncc1-c1ccccc1C(F)(F)F
AC50 (Cytochrome P450 2D6): 20 µM (inconclusive) | AC50 (Cytochrome P450 1A2): 12.6 µM (inconclusive)

Cc1cccc(C)c1NC(=O)NN=C1CCCCC1
EC50 [4]: > 300 µM (not active) | EC50 [5]: > 300 µM (not active)
